Consider eleven molecules from patent US20020150968A1, “Glycoconjugate and sugar nucleotide synthesis using solid supports” (priority 2001, published 2002).

Data set [1] deals with UDP-GalNAc pyrophosphorylase. As to conditions: substrate of UDP-GalNAc pyrophosphorylase; cited from earlier work.
For data set [2], the target named is T1, CMP-NeuNAc synthetase (Escherichia coli O18:K1:H7, UniProt P13266).
T1 construct: host or cells: E. coli K1
As to conditions: enzyme purified from E. coli K1; read-out: apparent Km; cited from earlier work.

The conditions of data set [3]: more active than morphine; cited from earlier work.
The test system of data set [4] is Sucrose synthase II. As to conditions: cited from earlier work.
Data set [5] has as its target spHAS (Streptococcus pyogenes, UniProt P0C0H0). The following applies: cited from earlier work.
The target of data set [6] is GalU (Escherichia coli, UniProt P0AEP3). The data set can be described thus: Enzymatic activity assay for GalU (two-step, UDP-glucose dehydrogenase coupled). Type of data set: biochemical, E. coli. Here is the method: A two-step assay was carried out to detect the GalU activity. In the first step, GalU catalyzed reactions were performed at room temperature (24° C.) for 15 min in a final volume of 250 μl containing 1.6 mM Glc-1-P, 2.8 mM UTP, 10 mM MgCl2 and 100 μl enzyme solution. A blank was performed with water replacing Glc-1-P. The reaction was stopped by adding cold NaCl solution (0.5 ml, 0.15 M) and immediately transferring the tube to a boiling water bath for 5 min to terminate the reaction. The contents of the tubes were cooled to room temperature and vortexed vigorously to break up the coagulum. After centrifuge at 1400×g for 15 min, the clear supernatant (0.2 ml) was subjected to the UDP-glucose assay in a cuvette with a total volume of 1 ml containing 0.03 M Tris-acetate buffer, pH 8.7, 1.36 mM NAD, 0.2 ml sample (supernatant from the previous procedure) and 3.2 mU UDP-glucose dehydrogenase. The OD change at 340 nm was monitored by a UV spectrophotometer (HP 8453 Spectrophotometer, Hewlett-Packard Corn.).

Data set [7] deals with GalT. The data set can be described thus: Enzymatic activity assay for GalT (two-step, UDP-glucose dehydrogenase coupled). Type of data set: biochemical, E. coli. The protocol: This was a two-step assay. In the first step, GalT catalyzed reactions were performed at room temperature (24° C.) for 15 min in a final volume of 250 μl HEPES buffer (100 mM, pH 7.4) containing 1.6 mM Gal-1-P, 2.8 mM UDP-glucose, and 100 μl of enzyme solution. A blank was performed with water replacing Gal-1-P. The reaction was stopped by adding cold NaCl solution (0.5 ml, 0.15 M) and immediately transferring the tube to a boiling water bath for 5 min to terminate the reaction. The contents of the tubes were cooled to room temperature and vortexed vigorously to break up the coagulum. After centrifugation at 1400×g for 15 min, the clear supernatant (0.2 ml) was subjected to the UDP-glucose assay in a cuvette with a total volume of 1 ml containing 0.03 M Tris-acetate buffer, pH 8.7, 1.36 mM NAD, 0.2 ml sample (supernatant from the previous procedure) and 3.2 mU UDP-glucose dehydrogenase. The OD change at 340 nm was monitored by a UV spectrophotometer (HP 8453 Spectrophotometer, Hewlett-Packard Corn.).

Where [8] appears, read: 25 ml lysate per 1 L cell culture.
Setting [9] is: purified His-tagged enzyme, 1 U = 1 μmole product per minute at 24° C.

Read-outs that look alike come from different tables or passages of the source.

Sequence of GalU (P0AEP3 whole entry): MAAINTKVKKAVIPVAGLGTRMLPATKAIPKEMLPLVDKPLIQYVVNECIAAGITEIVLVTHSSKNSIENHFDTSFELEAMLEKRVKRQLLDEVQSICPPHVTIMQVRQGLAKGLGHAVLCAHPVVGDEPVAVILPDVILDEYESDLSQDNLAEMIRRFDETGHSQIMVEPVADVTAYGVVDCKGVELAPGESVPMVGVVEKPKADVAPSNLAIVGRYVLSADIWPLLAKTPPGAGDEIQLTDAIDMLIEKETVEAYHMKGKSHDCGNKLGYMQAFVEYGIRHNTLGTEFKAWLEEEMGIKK
Sequence of spHAS (P0C0H0 whole entry): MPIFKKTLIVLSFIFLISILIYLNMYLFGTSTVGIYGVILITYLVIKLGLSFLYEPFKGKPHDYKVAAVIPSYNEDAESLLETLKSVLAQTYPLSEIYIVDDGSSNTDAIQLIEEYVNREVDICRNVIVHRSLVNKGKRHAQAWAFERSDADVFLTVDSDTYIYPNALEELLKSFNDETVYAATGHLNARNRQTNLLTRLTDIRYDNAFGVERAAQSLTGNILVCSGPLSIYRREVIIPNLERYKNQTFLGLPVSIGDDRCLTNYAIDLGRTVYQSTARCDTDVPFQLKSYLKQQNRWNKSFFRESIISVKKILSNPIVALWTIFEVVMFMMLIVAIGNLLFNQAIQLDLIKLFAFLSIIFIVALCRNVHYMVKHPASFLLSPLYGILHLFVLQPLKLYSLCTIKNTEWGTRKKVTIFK
T1 sequence (P13266 whole entry): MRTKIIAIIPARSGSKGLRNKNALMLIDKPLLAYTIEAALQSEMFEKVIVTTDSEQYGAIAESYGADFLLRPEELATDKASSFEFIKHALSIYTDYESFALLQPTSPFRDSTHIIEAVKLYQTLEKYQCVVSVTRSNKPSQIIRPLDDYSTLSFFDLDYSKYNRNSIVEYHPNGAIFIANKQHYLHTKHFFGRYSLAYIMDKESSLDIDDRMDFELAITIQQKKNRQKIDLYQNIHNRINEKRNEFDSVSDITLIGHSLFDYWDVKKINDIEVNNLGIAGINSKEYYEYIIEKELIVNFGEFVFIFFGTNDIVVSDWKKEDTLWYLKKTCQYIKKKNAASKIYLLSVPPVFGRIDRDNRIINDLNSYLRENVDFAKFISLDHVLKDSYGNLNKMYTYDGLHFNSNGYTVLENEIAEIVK

For the molecule `CC(=O)N[C@H]1C(OP(=O)(O)O)O[C@H](CO)[C@H](O)[C@@H]1O` (stereo partly shown) [GalNAc-1-P, N-acetylgalactosamine-1-phosphate], in data set [1], the Km was 290 µM. For the molecule `Nc1ccn([C@@H]2O[C@H](COP(=O)(O)OP(=O)(O)OP(=O)(O)O)[C@@H](O)[C@H]2O)c(=O)n1` [CTP, Cytosine 5′-triphosphate], in data set [2], the Km is 310 µM.

On to `CN1CC[C@]23c4c5ccc(O)c4O[C@H]2[C@@H](O[C@@H]2O[C@H](C(=O)O)[C@@H](O)[C@H](O)[C@H]2O)C=C[C@H]3[C@H]1C5` [morphine-6-O-glucuronide], for which the “activity relative to morphine” value in data set [3] is listed as 50 times.

`Nc1ncnc2c1ncn2[C@@H]1O[C@H](COP(=O)(O)OP(=O)(O)OP(=O)(O)O)[C@@H](O)[C@H]1O` [ATP, adenosine 5′-triphosphate]: the “effect on enzyme activity” value in data set [4] (both directions, in the presence of uridine substrate (UDP-Glc or UDP)) was “strong inhibition”.

As for `CC(=O)NC1C(OP(=O)(O)O)OC(CO)C(O)C1O` (stereo not shown) [GlcNAc-1-P], the Km in data set [1] was 1100 µM. For the molecule `[Mg+2]` [Mg^2+], in data set [4] (sucrose-cleavage direction), the “effect on enzyme activity” value is given as “little effect”.

As for `O=C(O)[C@H]1O[C@H](OP(=O)(O)OP(=O)(O)OC[C@H]2O[C@@H](n3ccc(=O)[nH]c3=O)[C@H](O)[C@@H]2O)[C@H](O)[C@@H](O)[C@@H]1O` [UDP-GlcA, uridine 5′-diphosphoglucuronic acid], in data set [5], the Michaelis-Menten constant (Km) is 40 ± 4 µM. Take `CC(=O)N[C@H]1[C@@H](OP(=O)(O)OP(=O)(O)OC[C@H]2O[C@@H](n3ccc(=O)[nH]c3=O)[C@H](O)[C@@H]2O)O[C@H](CO)[C@@H](O)[C@@H]1O` [UDP-GlcNAc, uridine 5′-diphospho-N-acetylglucosamine]: the Km in data set [5] was 149 ± 3 µM. For the molecule `[Mn+2]` [Mn^2+], the “effect on enzyme activity” value in data set [4] (sucrose-cleavage direction) is “strongly inhibited”.

B1: GalU: glucose-1-phosphate uridylyltransferase, E. coli, N-terminal six-histidine tag (protein, UniProt P0AEP3 2-302, looked up)
UTP--glucose-1-phosphate …: AAINTKVKKAVIPVAGLGTRMLPATKAIPKEMLPLVDKPLIQYVVNECIAAGITEIVLVTHSSKNSIENHFDTSFELEAMLEKRVKRQLLDEVQSICPPHVTIMQVRQGLAKGLGHAVLCAHPVVGDEPVAVILPDVILDEYESDLSQDNLAEMIRRFDETGHSQIMVEPVADVTAYGVVDCKGVELAPGESVPMVGVVEKPKADVAPSNLAIVGRYVLSADIWPLLAKTPPGAGDEIQLTDAIDMLIEKETVEAYHMKGKSHDCGNKLGYMQAFVEYGIRHNTLGTEFKAWLEEEMGIKK
modifications: N-terminal His6 tag
notes: glucose-1-phosphate uridylyltransferase, E. coli, N-terminal six-histidine tag
For the molecule B1, in data set [6] (setting [8]), the “activity of enzyme in the cell lysate” value came to 100 U/L. Further, the specific activity in data set [6] (setting [9]) turned out to be 10 U/mg.

B2: GalT: galactose-1-phosphate uridylyltransferase, E. coli, N-terminal six-histidine tag (protein, UniProt P09148 1-348, looked up)
Galactose-1-phosphate …: MTQFNPVDHPHRRYNPLTGQWILVSPHRAKRPWQGAQETPAKQVLPAHDPDCFLCAGNVRVTGDKNPDYTGTYVFTNDFAALMSDTPDAPESHDPLMRCQSARGTSRVICFSPDHSKTLPELSVAALTEIVKTWQEQTAELGKTYPWVQVFENKGAAMGCSNPHPHGQIWANSFLPNEAEREDRLQKEYFAEQKSPMLVDYVQRELADGSRTVVETEHWLAVVPYWAAWPFETLLLPKAHVLRITDLTDAQRSDLALALKKLTSRYDNLFQCSFPYSMGWHGAPFNGEENQHWQLHAHFYPPLLRSATVRKFMVGYEMLAETQRDLTAEQAAERLRAVSDIHFRESGV
modifications: N-terminal His6 tag
notes: galactose-1-phosphate uridylyltransferase, E. coli, N-terminal six-histidine tag
Take B2: the “activity of enzyme in the cell lysate” value in data set [7] (setting [8]) is listed as 100 U/L. Also, the specific activity in data set [7] (setting [9]) stood at 5 U/mg.

Broadly, the Km is the substrate concentration at which the rate is half of its maximum.
